Experimental data taken from EP4151201A1, “SHEET PRODUCT” (Kao Corporation, priority 2020, dated 2021).

Assay: Krafft point of the anionic surfactant
Format: physicochemical
Details: Krafft point at 10 mass% in aqueous solution; unit not given, Krafft points in °C
Experimental: The present invention uses a view that the Krafft point is a melting point of a hydrated solid of a surfactant. That is, the Krafft point is the temperature at which a surfactant precipitates when an aqueous solution thereof is cooled. In some kinds of surfactants, the Krafft point changes depending on the concentration. In the present invention, an anionic surfactant having a Krafft point of 45°C or more at a concentration of 10 mass% in an aqueous solution is used. The Krafft point can be measured using a differential scanning calorimetry.

| SMILES | Kp (Krafft point) |
| --- | --- |
| CCCCCCCCCCCCCCCCCC(=O)N(C)CCS(=O)(=O)[O-].[Na+] [Sodium N-stearoyl-N-methyltaurate] | Sodium N-stearoyl-N-methyltaurate (Kp = 50) (Nikkol SMT, manufactured by Nikko Chemicals Co., Ltd.) |
| CCCCCCCCCCCC(=O)[O-].[Na+] [Sodium laurate] | Sodium laurate (Kp ≈ 38) |
| CCCCCCCCCCCCCCCCCC(=O)[O-].[Na+] [Sodium stearate] | Sodium stearate (Kp = 79) |
